Measured values taken from patent US9675702B2, “Methods and compositions for the sustained release of chromium” (JDS Therapeutics, LLC, priority 2007, dated 2017).
Like-named read-outs stand apart in the source and are kept apart here.

What was measured:
[1] = tested on: rats; details: cited from earlier work
[2] = tested on: skeletal muscle cells; experiment: Glucose uptake ([3H]-deoxyglucose) in cultured skeletal muscle cells with or without insulin; format: cell-based; details: insulin-stimulated cells; versus cultures without chromium supplementation
Procedure: The following example describes experiments that compared the effects of chromium supplementation in the form of chromium picolinate versus a combination of chromium picolinate:chormium histidinate (1:1 elemental chromium) on glucose uptake in skeletal muscle cells. The amounts of chromium picolinate and the combination were adjusted so as to provide equimolar amounts of elemental chromium. […] To assess glucose uptake, [^3H]C-deoxyglucose was added to cultures of skeletal muscle, in media with or without insulin and with or without the indicated chromium supplementation. Uptake of the labeled glucose by the cells was calculated.

[3] = tested on: Wistar rats; experiment: 12-week chromium supplementation in water of rats fed normal or high fat diet; serum glucose, cholesterol, triglycerides, free fatty acids; format: in vivo; details: for serum triglyceride levels / free fatty acid levels / total serum cholesterol levels / serum glucose levels: 12 weeks; for total serum cholesterol levels: rats fed a normal diet (FIG. 3A); for reduction in serum glucose levels compared with other chromium supplementation: same total elemental chromium; for serum glucose levels: 1.43 μg chromium in water
Procedure: Wistar rats were reared at the temperature of (22±2° C.), humidity (55±5%) and a 12/12 h light/dark cycle. Pellet food and water were provided ad libitum. Rats were randomly assigned to one of eight treatment groups. Group 1: Control rats were fed standard diet (12% of calories as fat) for 12 weeks. Group 2: Rats were fed standard diet with chromium picolinate ([…] 1.43 μg chromium) included in the water for 12 weeks. Group 3: […] Group 4: […] Group 5: Rats were fed high fat diet (40% of calories as fat) for 12 weeks. Group 6: Rats were fed high-fat diet (40% of calories as fat) and with chromium picolinate (14.3 μg, providing 1.43 μg chromium) included in the water for 12 weeks. Group 7: […] Group 8: […] Bodyweight, serum glucose, composite insulin sensitivity index (CISI), serum cholesterol, serum triglycerides and serum free fatty acid levels were measured. The baseline levels for the control rats (no chromium supplementation) that were fed normal or high fat diets are shown in Table 1, below. Serum glucose levels, serum cholesterol levels, serum triglyceride levels, and free fatty acid levels were measured in all groups after twelve weeks.

[4] = cited from earlier work
[5] = rats fed a high fat diet (FIG. 4B)
[6] = rats fed a high fat diet (FIG. 5B)
[7] = rats fed a normal diet (FIG. 4A)
[8] = rats fed a normal diet (FIG. 5A)

Molecule: chromium picolinate
- toxic effects ([1]; rat, in vivo): without toxic effects
- glucose uptake [2]: stimulated glucose uptake
- serum triglyceride levels [3, 5]: significant decrease
- free fatty acid levels [3, 6]: significant decrease
- total serum cholesterol levels [3]: significant decrease
- serum triglyceride levels [3, 7]: significant decrease
- free fatty acid levels [3, 8]: significant decrease

Molecule: N[C@@H](Cc1c[nH]cn1)C(=O)O [histidine]
- pKa [4]: ~6.0

Molecule: [Cl][Cr]([Cl])[Cl] [chromium chloride]
- toxic effects ([1]; rats, levels several thousand times the upper limit of the ESADDI for chromium for humans (based on body weight)): without toxic effects

Molecule: chromium histidinate
- reduction in serum glucose levels compared with other chromium supplementation ([3]; high fat diet rats (FIG. 2B)): significantly greater degree than chromium picolinate
- serum glucose levels ([3]; high-fat fed rats): decreased serum glucose levels
- reduction in serum glucose levels compared with other chromium supplementation ([3]; normal diet rats (FIG. 2A)): significantly greater degree than chromium picolinate
- serum glucose levels ([3]; normal diet rats): decreased serum glucose levels
- serum triglyceride levels [3, 5]: significant decrease
- free fatty acid levels [3, 6]: significant decrease
- total serum cholesterol levels [3]: significant decrease
- serum triglyceride levels [3, 7]: significant decrease
- free fatty acid levels [3, 8]: significant decrease
